The results in this text go back to patent US10696686B2, “Herbicidally active (alkynyl-phenyl)-substituted cyclic dione compounds and derivatives thereof” (Syngenta Limited, priority 2013, dated 2020).

What all share (assay type): in vivo
Experiment [1] has as its system Digitaria sanguinalis (DIGSA). Put plainly: Biological Example 3 glasshouse assay using various adjuvant systems, post-emergence foliar spray. To be noted: 8 g/ha. Here is the method:
Post-emergence foliar spray application, 200 L/ha, usually one or two replicates for the weeds (depending on application rate), and two replicates for soybean.
Standard warm conditions (tropical), in glasshouse. Specifically, the glasshouse bay conditions are 24° C./18° C. day/night; 16/8 hours light/dark; 65% humidity.
The herbicidal application takes place at the following growth stages for plants which include inter alia one or more of the following plants (usually the herbicidal application takes place on at least the following plants: DIGSA, ELEIN, SETFA, ZEAMX, GLXMA Nikko, and GLXMA TMG133, and often also either BRADC or BRAPP):
Digitaria sanguinalis (DIGSA)—growth stage 12 or 13
Each test compound is applied with one of the following adjuvant systems (all percentages are final concentrations in the aqueous spray mixture):
Adjuvant system 1: 0.5% v/v Adigor™ *, 1.0% v/v AMS (ammonium sulphate) and 12.5% v/v IPA (isopropyl alcohol).
Adjuvant system 1A: 0.5% v/v Adigor™ * and 12.5% v/v IPA (isopropyl alcohol).
CAS Registry no. […] A visual assessment of the % herbicidal damage is made 7 and 14 Days After herbicide Application (DAA) (or, in a minority of cases, 7 and 15 DAA), and the results are recorded as % visual herbicidal damage where 0%=no damage to plants and 100%=plant totally killed. *** Adjuvant system=either Adigor™ or Hexamoll DINCH™ or tris-(2-ethylhexyl) phosphate each at 0.5% v/v, and 12.5% v/v IPA (isopropyl alcohol), and 1.0% v/v AMS (ammonium sulphate); or 0.5% v/v Adigor™ and 12.5% v/v IPA (isopropyl alcohol); all percentages are final concentrations in the aqueous spray mixture. […]
The percentages of herbicidal damage/plant control, at 14 Days After herbicide Application (DAA) (or, in a minority of cases, at 15 DAA), for the Compounds tested and for some of the plants tested, were in the following percentage ranges. […] Phytotoxicity on Glycine max (GLXMA, Soybean) Cultivar “TMG133” Glycine max (GLXMA, soybean) cultivar “TMG133” is Roundup Ready™ glyphosate-tolerant soybean cultivar TMG133, and is typically available from Monsanto in Brazil. […]

Experiment [2] relates to Amaranthus retroflexus (AMARE). In words: Biological Example 1A glasshouse assay, post-emergence application. The following applies: 312 h, read-out: Percentage phytotoxicity AMARE. In a few lines:
(§1)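 Glasshouse spray test: herbicide in acetone/water (50:50) + 0.5% Tween 20, applied pre-emergence (1 d after sowing) or post-emergence (8 d), sandy soil. Injury scored visually, 0–100%, at 13 DAA.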

A further experiment deals with Setaria faberi (SETFA). The experiment is described as above. The following applies: Setaria faberi, post-emergence, 312 h, read-out: Percentage phytotoxicity SETFA. A digest of the protocol:
as §1

For experiment [3], the system named is Zea mays (ZEAMX, corn, maize, e.g. volunteer corn). The description is as above. To be noted: Zea mays, post-emergence, 312 h, read-out: Percentage phytotoxicity ZEAMX. A digest of the protocol: as §1
For experiment [4], the system named is Alopecurus myosuroides (ALOMY). The experiment is described as above. The following applies: 13 days after application. A digest of the protocol:
as §1

Experiment [5] has as its system Abutilon theophrasti (ABUTH). The description is as above. To be noted: 312 h, read-out: Percentage phytotoxicity ABUTH. A digest of the protocol: as §1
Where [6] appears, read: 30 g/ha, 13 days after application.
Setting [7] is: 250 g/ha, 13 days after application.

Where two headings read alike, the source gives them in different places.

As for `C#CCC1CC(=O)C(c2c(F)cc(C#CC)cc2OC)C1=O` (stereo not shown) [Compound A8, 2-(2-fluoro-6-methoxy-4-prop-1-ynyl-phenyl)-4-prop-2-ynyl-cyclopentane-1,3-dione], the “percentage control of (phytotoxicity on) Digitaria sanguinalis (DIGSA)” value in experiment [1] (14 DAA, adjuvant 0.5% v/v Adigor + 12.5% v/v IPA) is listed as 65%. The pest or weed control at 30 g/ha in experiment [2] worked out at 0%; in the experiment with Setaria faberi (SETFA), 80%; in experiment [3], 100%; in experiment [5], 0%. Besides, the pest or weed control at 250 g/ha in experiment [2] is 0%; in the experiment on Setaria faberi (SETFA), 100%; in experiment [3] it was 100%; in experiment [5], 70%. Also, the “Percentage phytotoxicity ALOMY” value in experiment [4] (30 g/ha) is listed as 70%; in experiment [4] (250 g/ha), 90%.

As to `CC#Cc1cc(F)c(C2C(=O)CC(CCSC)CC2=O)c(OC)c1` (stereo not shown) [Compound A11], the “percentage control of Digitaria sanguinalis (DIGSA)” value in experiment [1] (14 DAA (A11: 14 or 15 DAA), adjuvant 0.5% v/v Adigor + 1.0% v/v AMS + 12.5% v/v IPA) is recorded as 0%. The pest or weed control at 30 g/ha in experiment [2] (setting [6]) stood at 30%; in the experiment with Setaria faberi (SETFA) (setting [6]), 30%; in experiment [3] (setting [6]), 20%; in experiment [5] (setting [6]) it was 0%. Further, the pest or weed control at 250 g/ha turned out to be 50% in experiment [2] (setting [7]), 60% in the experiment on Setaria faberi (SETFA) (setting [7]), 20% in experiment [3] (setting [7]) and 10% in experiment [5] (setting [7]). Moreover, the “Percentage phytotoxicity ALOMY” value in experiment [4] (30 g/ha) is given as 0%; in experiment [4] (250 g/ha), 10%.
